Results reported in patent publication US9393232B2 (BeiGene, Ltd., priority 2013, dated 2016).
Like-named read-outs stand apart in the source and are kept apart here.

Target: Recombinant human BRD4(1-477) (Homo sapiens (Human), UniProt O60885)
Experiment: BRD4 TR-FRET biochemical IC50 assay
Assay type: binding
Settings: tetra-acetylated histone peptide

Row | SMILES | IC50 (TR-FRET, read-out: BRD4 IC50) | IC50 (BRD4 IC50, TR-FRET)
1 | Cc1noc(C)c1-c1ccc2c(c1)C(O)(c1ccccc1)C(=O)N2 (single isomer, unassigned) [Compound 1.1b, 5-(3,5-dimethylisoxazol-4-yl)-3-hydroxy-3-phenylindolin-2-one] | 7000 nM | 
2 | Cc1noc(C)c1-c1ccc2c(c1)C(O)(C1CCCCC1=O)C(=O)N2 (single isomer, unassigned) [Compound 1.30b, 5-(3,5-Dimethylisoxazol-4-yl)-3-hydroxy-3-(2-oxocyclohexyl)indolin-2-one] | 650 nM | 
3 | Cc1noc(C)c1-c1ccc2c(c1)C(N[C@@H](CO)c1ccccc1)(c1ccccc1)C(=O)N2 (single isomer, unassigned) [Compound 2.7a] | > 10000 nM | 
4 | Cc1noc(C)c1-c1ccc2c(c1)C(N[C@@H](CO)c1ccccc1)(c1ccccc1)C(=O)N2 (single isomer, unassigned) [Compound 2.7b] | 810 nM | 
5 | Cc1noc(C)c1-c1ccc2c(c1)C(N[C@H](CO)c1ccccc1)(c1ccccc1)C(=O)N2 (single isomer, unassigned) [Compound 2.8a] | 510 nM | 
6 | Cc1noc(C)c1-c1ccc2c(c1)C(N[C@H](CO)c1ccccc1)(c1ccccc1)C(=O)N2 (single isomer, unassigned) [Compound 2.8b] | 2200 nM | 
7 | Cc1noc(C)c1-c1ccc2c(c1)C(N[C@@H](CO)C(C)C)(c1ccccc1)C(=O)N2 (single isomer, unassigned) [Compound 2.11a] | 3600 nM | 
8 | Cc1noc(C)c1-c1ccc2c(c1)C(N[C@H](CO)C(C)C)(c1ccccc1)C(=O)N2 (single isomer, unassigned) [Compound 2.12b] | 3400 nM | 
9 | Cc1noc(C)c1-c1ccc2c(c1)C(NC[C@@H](C)O)(c1ccccc1)C(=O)N2 (single isomer, unassigned) [Compound 2.13a] | 710 nM | 
10 | Cc1noc(C)c1-c1ccc2c(c1)C(NC[C@H](C)O)(c1ccccc1)C(=O)N2 (single isomer, unassigned) [Compound 2.14b] | 610 nM | 
11 | Cc1noc(C)c1-c1ccc2c(c1)C(N[C@H](CO)C(C)C)(C1CCCCC1)C(=O)N2 (single isomer, unassigned) [Compound 2.19a] | > 10000 nM | 
12 | Cc1noc(C)c1-c1ccc2c(c1)C(N[C@@H](CO)C(C)C)(C1CCCCC1)C(=O)N2 (single isomer, unassigned) [Compound 2.20a] | 5100 nM | 
13 | Cc1noc(C)c1-c1ccc2c(c1)C(N)(C1CCCCC1)C(=O)N2 (single isomer, unassigned) [Compound 2.37b, 3-Amino-3-cyclohexyl-5-(3,5-dimethylisoxazol-4-yl)indolin-2-one] | 1100 nM | 
14 | COC(=O)[C@@H]1C[C@@H](O)CN1C1(c2ccccc2)C(=O)Nc2ccc(-c3c(C)noc3C)cc21 (single isomer, unassigned) [Compound 2.50b] | 850 nM | 
15 | Cc1noc(C)c1-c1ccc2c(c1)C(c1ccccc1)(N1C[C@@H](O)C[C@H]1CO)C(=O)N2 (single isomer, unassigned) [Compound 2.51a] | 1400 nM | 
16 | Cc1noc(C)c1-c1ccc2c(c1)C(c1ccccc1)(N1C[C@@H](O)C[C@H]1CO)C(=O)N2 (single isomer, unassigned) [Compound 2.51b] | 67 nM | 
17 | Cc1noc(C)c1-c1ccc2c(c1)C(N[C@H](CO)Cc1cnc[nH]1)(c1ccccc1)C(=O)N2 (single isomer, unassigned) [Compound 2.57a, 5-(3,5-Dimethylisoxazol-4-yl)-3-((s)-1-hydroxy-3-(1h-imidazol-5-yl)propan-2-ylamino)-3-phenylindolin-2-one] | 410 nM | 

Row | SMILES | IC50 (TR-FRET, read-out: BRD4 IC50) | IC50 (BRD4 IC50, TR-FRET)
18 | Cc1noc(C)c1-c1ccc2c(c1)C(N[C@H](CO)Cc1cnc[nH]1)(c1ccccc1)C(=O)N2 (single isomer, unassigned) [Compound 2.57b, 5-(3,5-Dimethylisoxazol-4-yl)-3-((s)-1-hydroxy-3-(1h-imidazol-5-yl)propan-2-ylamino)-3-phenylindolin-2-one] | 41 nM | 
19 | Cc1noc(C)c1-c1ccc2c(c1)C(N)(c1ccc(F)cc1)C(=O)N2 (single isomer, unassigned) [Compound 2.59a, 3-amino-5-(3,5-dimethylisoxazol-4-yl)-3-(4-fluorophenyl)indolin-2-one] | 4100 nM | 
20 | Cc1noc(C)c1-c1ccc2c(c1)C(N)(c1ccc(F)cc1)C(=O)N2 (single isomer, unassigned) [Compound 2.59b, 3-amino-5-(3,5-dimethylisoxazol-4-yl)-3-(4-fluorophenyl)indolin-2-one] | 36 nM | 
21 | Cc1noc(C)c1-c1ccc2c(c1)C(O)(c1ccsc1)C(=O)N2 (single isomer, unassigned) [Compound 4.1a, 5-(3,5-Dimethylisoxazol-4-yl)-3-hydroxy-3-(thiophen-3-yl)indolin-2-one] |  | 4900 nM
22 | COc1ccc(C2(O)C(=O)Nc3ccc(-c4c(C)noc4C)cc32)cc1OC (stereo not drawn) [Compound 1.10, 3-(3,4-dimethoxyphenyl)-5-(3,5-dimethylisoxazol-4-yl)-3-hydroxyindolin-2-one] | 1300 nM | 
23 | Cc1noc(C)c1-c1ccc2c(c1)C(O)(c1cccc3ccccc13)C(=O)N2 (stereo not drawn) [Compound 1.11, 5-(3,5-dimethylisoxazol-4-yl)-3-hydroxy-3-(naphthalen-1-yl)indolin-2-one] | 2500 nM | 
24 | Cc1noc(C)c1-c1ccc2c(c1)C(O)(C#Cc1ccccc1)C(=O)N2 (stereo not drawn) [Compound 1.12, 5-(3,5-dimethylisoxazol-4-yl)-3-hydroxy-3-(phenylethynyl)indolin-2-one] | 2300 nM | 
25 | CCC1(O)C(=O)Nc2ccc(-c3c(C)noc3C)cc21 (stereo not drawn) [Compound 1.20, 5-(3,5-dimethylisoxazol-4-yl)-3-ethyl-3-hydroxyindolin-2-one] | 2300 nM | 
26 | C#CC1(O)C(=O)Nc2ccc(-c3c(C)noc3C)cc21 (stereo not drawn) [Compound 1.21, 5-(3,5-dimethylisoxazol-4-yl)-3-ethynyl-3-hydroxyindolin-2-one] | 1200 nM | 
27 | Cc1noc(C)c1-c1ccc2c(c1)C(O)(C(C)(C)C)C(=O)N2 (stereo not drawn) [Compound 1.26, 3-tert-butyl-5-(3,5-dimethylisoxazol-4-yl)-3-hydroxyindolin-2-one] | 3200 nM | 
28 | Cc1noc(C)c1-c1ccc2c(c1)C(O)(C(C)C)C(=O)N2 (stereo not drawn) [Compound 1.27, 5-(3,5-dimethylisoxazol-4-yl)-3-hydroxy-3-isopropylindolin-2-one] | 2800 nM | 
29 | C=C(C)CC1(O)C(=O)Nc2ccc(-c3c(C)noc3C)cc21 (stereo not drawn) [Compound 1.28, 5-(3,5-dimethylisoxazol-4-yl)-3-hydroxy-2-(2-methylallyl)indolin-2-one] | 3900 nM | 
30 | Cc1noc(C)c1-c1ccc2c(c1)C(O)(CCCc1ccccc1)C(=O)N2 (stereo not drawn) [Compound 1.29, 5-(3,5-dimethylisoxazol-4-yl)-3-hydroxy-3-(3-phenylpropyl)indolin-2-one] | 1600 nM | 
31 | CC(=O)OC1(c2ccccc2)C(=O)Nc2ccc(-c3c(C)noc3C)cc21 (stereo not drawn) [Compound 1.34, 5-(3,5-Dimethylisoxazol-4-yl)-2-oxo-3-phenylindolin-3-yl acetate] | 150 nM | 
32 | Cc1noc(C)c1-c1ccc2c(c1)C(NCCC(C)C)(C1CCCCC1)C(=O)N2 (stereo not drawn) [Compound 2.25, 3-cyclohexyl-5-(3,5-dimethylisoxazol-4-yl)-3-(isopentylamino)indolin-2-one] | 3700 nM | 
33 | Cc1noc(C)c1-c1ccc2c(c1)C(C1CCCCC1)(N1CCC[C@@H](O)C1)C(=O)N2 (stereo partly drawn) [Compound 2.30, 3-cyclohexyl-5-(3,5-dimethylisoxazol-4-yl)-3-((R)-3-hydroxypiperidin-1-yl)indolin-2-one] | 61 nM | 
